# Experimental data reported in patent EP0168965B1, “4(5)-substituted imidazoles” (ELI LILLY AND COMPANY, priority 1984, dated 1986).
# pIC50: −log10 of the molar value.
# Experiments:
# aromatase = molecular target: T1, aromatase (Rattus norvegicus, UniProt P22443); assay: Aromatase inhibition in the rat ovarian microsome assay; assay type: biochemical; conditions: read-out: EC50 (the source's name)
# T1 construct: ovarian microsomes are obtained from rats treated with pregnant mares serum gonadotropin; from tissue; host or cells: rat ovarian microsomes (rats treated with pregnant mares serum gonadotropin)
# T1 sequence (P22443 1-508): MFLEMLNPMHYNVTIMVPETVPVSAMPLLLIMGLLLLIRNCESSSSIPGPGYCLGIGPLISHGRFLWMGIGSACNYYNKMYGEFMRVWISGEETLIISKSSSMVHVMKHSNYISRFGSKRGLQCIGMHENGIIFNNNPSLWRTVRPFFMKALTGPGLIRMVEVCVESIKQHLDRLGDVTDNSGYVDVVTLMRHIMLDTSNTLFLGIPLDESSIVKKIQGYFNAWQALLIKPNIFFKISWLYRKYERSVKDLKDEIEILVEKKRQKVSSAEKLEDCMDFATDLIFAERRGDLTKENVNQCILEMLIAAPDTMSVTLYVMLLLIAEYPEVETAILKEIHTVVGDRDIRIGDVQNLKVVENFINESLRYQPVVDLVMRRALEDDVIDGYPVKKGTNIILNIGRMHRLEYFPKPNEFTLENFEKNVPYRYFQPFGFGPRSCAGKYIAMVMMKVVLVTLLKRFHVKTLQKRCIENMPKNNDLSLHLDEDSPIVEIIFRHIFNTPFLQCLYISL
# Description: In this test system, ovarian microsomes are obtained from rats treated with pregnant mares serum gonadotropin. Test compounds are added to reaction vials containing 0.1 µM 4-androstene-3,17-dione, 100,000 dpm 1,2[^3H]-androstenedione, the microsomes and a NADPH generating system. The concentrations of the inhibitors tested ranged between 0.005 and 10 um.
# synthesis of estrogens = assay: Estrogen synthesis inhibition in rats (uterine weight and ovarian steroid concentrations); assay type: in vivo, Immature female Wistar rats; conditions: for Mean Steroid Concentration estradiol / Mean Steroid Concentration estriol / Mean Steroid Concentration estrone: ovaries
# Description: Immature female Wistar rats (45-55 grams) were divided into control and test groups of 4-5 animals each. Test compounds were administered for seven days daily by gavage in corn oil. Control animals received corn oil without the test compound. Beginning on the fourth day of the test, all animals treated with the test compound and one half of the control animals were given a subcutaneous injection of 1.0 mg of testosterone propionate in corn oil. The remaining control animals received only an equivalent volume of corn oil. On the seventh day of the test, rats treated with testosterone propionate were injected subcutaneously with 100 µCi of [^3H]-testosterone in 50 pl of 3:1 (v/v) saline-ethanol.
# After two hours, the animals were killed by decapitation. Uteri were isolated, trimmed of extraneous connective tissue, and weighed. […] In the control animals treated with testosterone propionate, estrogens produced by aromatization stimulated the uterus resulting in an increase in weight.
# Ovaries from rats treated with [^3H]-testosterone were excised, cleaned of extraneous tissue, and homogenized in 2.5 ml of a 1.0 mM potassium phosphate buffer containing 3.0 mM MgC12-6H20, 320 mM sucrose, and 0.25% Triton X-100 (polyethylene glycol p-isooctyl phenyl ether, Rohm and Haas) at pH 6.5. The ovarian steroids were extracted with 1.5 ml of 9:1 (v/v) toluene/ethanol to which had been added 25 to 100 mcg each of unlabelled estradiol, estriol, and estrone, and approximately 1000 dpm of [^14C]-estradiol. The samples were vortexed, centrifuged at 500 x g for 10 minutes, and the organic phase was transferred to a conical vial. Two additional extractions were performed on the residue in the same way. The pooled organic extracts were evaporated for subsequent thin-layer chromatography.
# Ovarian proteins were precipitated by the addition of 5.0 ml of ethanol to the remaining aqueous phase. After an overnight incubation at 4°C, the samples were centrifuged at 1500 x g for 10 minutes. The supernatant was discarded and the pellet was dissolved in 0.3 N potassium hydroxide. Protein was determined according to the method of Bradford, Analytical Biochemistry, 72, 248 (1976).
# The organic residue from each above extraction was redissolved in 9:1 (v/v) dichioromethane/ methanol. The solution of each sample was applied to separate silica gel thin layer chromatography plates which contained a fluorescent indicator. The plates were developed in the first dimension with 160:38:1.5:0.5 (v/v/v/v) dichloromethane/ethyl acetate/methanol/acetic acid to within 3 cm of the top of the plate. After air-drying, the plate was developed in the second dimension with 180:19:1 (v/v/v) dichloromethane/methanol/ammonium hydroxide. The plate was air-dried and viewed under 254 nm UV light.
# The visible spots were marked and the plates were sprayed with primulin (0.001% in 4:1 v/v acetone/ water) according to the method of Wright, J. Chromatography, '59, 220 (1971) which allowed for the identification of additional steroids under 365 nm UV light. The spots were scraped from the plate using a glass wool plugged Pasteur pipet attached to a vacuum line. The steroids were eluted directly into scintillation vials by the addition of 0.2 ml of dichloromethane followed by two washes each of 2.0 ml of methanol. The organic solvent was evaporated and 10.0 ml of scintillation fluid (Beckman Ready Solv-NA) was added to the vials. Samples were analyzed by liquid scintillation spectrometry. Corrections were made based on the recoveries of the [^14C]-steroid. Steroid concentrations are expressed as femtomoles per milligram protein.
# [1] = 1 mg/kg p.o. by gavage daily for seven days
# [2] = 3 mg/kg p.o. by gavage daily for seven days
# [3] = 10 mg/kg p.o. by gavage daily for seven days
# [4] = 30 mg/kg p.o. by gavage daily for seven days
# [5] = 100 mg/kg p.o. by gavage daily for seven days
compound,measurement,setting,value
"Fc1ccc(C(c2ccc(F)cc2)c2c[nH]cn2)cc1 [Example 1, 4(5)-[Bis(4-fluorophenyl)methyl]-1H-imidazole]",pIC50,aromatase,> 7.30
"Fc1ccc(C(c2ccc(Cl)cc2)c2c[nH]cn2)cc1 (stereo not shown) [Example 2, 4(5)-[(4-Chlorophenyl)(4-fluorophenyl)methyl]imidazole]",pIC50,aromatase,> 7.30
"OC(c1ccc(Cl)cc1)(c1ccc(Cl)cc1)c1c[nH]cn1 [Example 3, a,a-bis(4-chlorophenyl)-4(5)-imidazolemethanol]",Mean Steroid Concentration estradiol,synthesis of estrogens; [1],0.35 femtomoles per milligram of protein
same,Mean Steroid Concentration estriol,synthesis of estrogens; [1],0.132 femtomoles per milligram of protein
same,Mean Steroid Concentration estrone,synthesis of estrogens; [1],0.00 femtomoles per milligram of protein
same,Mean Uterine Weight,"synthesis of estrogens; 1 mg/kg p.o. by gavage daily for seven days, testosterone propionate-treated rats",214.2 mg
same,Mean Steroid Concentration estradiol,synthesis of estrogens; [2],0.31 femtomoles per milligram of protein
same,Mean Steroid Concentration estriol,synthesis of estrogens; [2],0.383 femtomoles per milligram of protein
same,Mean Steroid Concentration estrone,synthesis of estrogens; [2],0.05 femtomoles per milligram of protein
same,Mean Uterine Weight (mg),"synthesis of estrogens; 3 mg/kg p.o. by gavage daily for seven days, testosterone propionate-treated rats",158.8^+ mg
same,Mean Steroid Concentration estradiol,synthesis of estrogens; [3],0.19^+ femtomoles per milligram of protein
same,Mean Steroid Concentration estriol,synthesis of estrogens; [3],0.218 femtomoles per milligram of protein
same,Mean Steroid Concentration estrone,synthesis of estrogens; [3],0.03 femtomoles per milligram of protein
same,Mean Uterine Weight (mg),"synthesis of estrogens; 10 mg/kg p.o. by gavage daily for seven days, testosterone propionate-treated rats",131.2^+ mg
same,Mean Steroid Concentration estradiol,synthesis of estrogens; [4],0.22 femtomoles per milligram of protein
same,Mean Steroid Concentration estriol,synthesis of estrogens; [4],0.391 femtomoles per milligram of protein
same,Mean Steroid Concentration estrone,synthesis of estrogens; [4],0.07 femtomoles per milligram of protein
same,Mean Uterine Weight (mg),"synthesis of estrogens; 30 mg/kg p.o. by gavage daily for seven days, testosterone propionate-treated rats",96.2^+ mg
same,Mean Steroid Concentration estradiol,synthesis of estrogens; [5],0.10^+ femtomoles per milligram of protein
same,Mean Steroid Concentration estriol,synthesis of estrogens; [5],0.534^+ femtomoles per milligram of protein
same,Mean Steroid Concentration estrone,synthesis of estrogens; [5],0.36^+ femtomoles per milligram of protein
same,Mean Uterine Weight (mg),"synthesis of estrogens; 100 mg/kg p.o. by gavage daily for seven days, testosterone propionate-treated rats",79.5^+ mg
